According to patent US8895585B2, “Nicotinamide derivative or salt thereof” (FUJIFILM Corporation, priority 2010, dated 2014):
Several values for one entry are separate records, joined by “and”; a condition that tells them apart may be missing. Equal values may be shown once. Read-outs that look alike come from different tables or passages of the source.

What was measured:
THP-1 cells = assay: TNFα generation assay; assay type: cell-based, human; settings: Homo sapiens
Procedure, shortened: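 THP-1 cells differentiated to macrophage-like cells with 10 ng/ml IFN-γ for 2 days, preincubated with compound 30 min at room temperature, then cultured 7 h on plates coated with human IgG (10 μg/ml). Secreted TNFα measured by ELISA or AlphaLISA.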

[1] = target: T1, glutathione S-transferase (GST)-fused full-length human Syk protein (Homo sapiens, UniProt P43405); assay: Syk enzyme assay; assay type: biochemical
T1 construct: (GST)-fused full-length human Syk protein; GST (glutathione S-transferase); purchased Carna Biosciences
Procedure, shortened: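 IC50 values come from a time-resolved FRET readout (615 and 665 nm) of substrate phosphorylation, measured after an EDTA stop and 1 h antibody binding. The kinase reaction ran 40 min at room temperature with 27 μM ATP and 0.4 μM biotin-peptide, following a 15 min compound preincubation with baculovirus-made GST-full-length human Syk.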

[2] = THP-1, THP-1 cells, Table 22, read-out: IC50 in TNFα generation assay
[3] = Syk enzyme assay, Test Example 1, read-out: IC50 of Syk-inhibitory activity
[4] = THP-1, 7 h, IFN-γ-differentiated THP-1 cells on human IgG-coated plate, cultured 7 hours, read-out: TNFα generation inhibitory activity (IC50)
[5] = read-out: Syk-inhibitory activity (IC50)

Row | IC50 (THP-1 cells; [2]) [µM] | IC50 [1, 3] | IC50 (THP-1 cells; [4]) [µM] | IC50 [1, 5] [µM] | SMILES
1 | < 0.065 | < 0.01 µM |  |  | COc1nn(C)c2ccc(Nc3nc(N[C@@H]4CCCC[C@@H]4N)c(F)cc3C(N)=O)cc12 [Example 006-585, 6-(((1R,2S)-2-aminocyclohexyl)amino)-5-fluoro-2-((3-methoxy-1-methyl-1H-indazol-5-yl)amino)nicotinamide]
2 | 0.065 to 0.13 | < 0.01 µM |  |  | COc1nn(C)c2ccc(Nc3nc(N[C@H](CC4CC4)[C@H](C)N)c(F)cc3C(N)=O)cc12 [Example 006-586, 6-(((2R,3S)-3-amino-1-cyclopropylbutan-2-yl)amino)-5-fluoro-2-((3-methoxy-1-methyl-1H-indazol-5-yl)amino)nicotinamide]
3 | 0.065 to 0.13 | < 0.01 µM |  |  | COc1nn(C)c2ccc(Nc3nc(N[C@H](CC(C)C)[C@H](C)N)c(F)cc3C(N)=O)cc12 [Example 006-587, 6-(((2S,3R)-2-amino-5-methylhexan-3-yl)amino)-5-fluoro-2-((3-methoxy-1-methyl-1H-indazol-5-yl)amino)nicotinamide]
4 | < 0.065 | < 0.01 µM |  |  | CC[C@@H](Nc1nc(Nc2ccc3c(c2)c(OC)nn3C)c(C(N)=O)cc1F)[C@H](C)N [Example 006-588, 6-(((2S,3R)-2-aminopentan-3-yl)amino)-5-fluoro-2-((3-methoxy-1-methyl-1H-indazol-5-yl)amino)nicotinamide]
5 | 0.065 to 0.13 | < 0.01 µM |  |  | COc1nn(C)c2ccc(Nc3nc(N[C@H](C4CC4)[C@H](C)N)c(F)cc3C(N)=O)cc12 [Example 006-589, 6-(((1R,2S)-2-amino-1-cyclopropylpropyl)amino)-5-fluoro-2-((3-methoxy-1-methyl-1H-indazol-5-yl)amino)nicotinamide]
6 | 0.13 to 0.2 | < 0.01 µM |  |  | CCOc1nn(CC)c2ccc(Nc3nc(N[C@@H]4CCCC[C@@H]4N)c(F)cc3C(N)=O)cc12 [Example 006-590, 6-(((1R,2S)-2-aminocyclohexyl)amino)-2-((3-ethoxy-1-ethyl-1H-indazol-5-yl)amino)-5-fluoronicotinamide]
7 | 0.13 to 0.2 | < 0.01 µM |  |  | CCOc1nn(CC)c2ccc(Nc3nc(N[C@H](CC4CC4)[C@H](C)N)c(F)cc3C(N)=O)cc12 [Example 006-591, 6-(((2R,3S)-3-amino-1-cyclopropylbutan-2-yl)amino)-2-((3-ethoxy-1-ethyl-1H-indazol-5-yl)amino)-5-fluoronicotinamide]
8 | 0.13 to 0.2 | < 0.01 µM |  |  | CCOc1nn(CC)c2ccc(Nc3nc(N[C@H](CC(C)C)[C@H](C)N)c(F)cc3C(N)=O)cc12 [Example 006-592, 6-(((2S,3R)-2-amino-5-methylhexan-3-yl)amino)-2-((3-ethoxy-1-ethyl-1H-indazol-5-yl)amino)-5-fluoronicotinamide]
9 | 0.065 to 0.13 | < 0.01 µM |  |  | CCOc1nn(CC)c2ccc(Nc3nc(N[C@H](CC)[C@H](C)N)c(F)cc3C(N)=O)cc12 [Example 006-593, 6-(((2S,3R)-2-aminopentan-3-yl)amino)-2-((3-ethoxy-1-ethyl-1H-indazol-5-yl)amino)-5-fluoronicotinamide]
10 | 0.065 to 0.13 | < 0.01 µM |  |  | CC[C@@H](Nc1nc(Nc2ccc3c(c2)c(-n2cccn2)nn3C)c(C(N)=O)cc1F)[C@H](C)N [Example 006-596, 6-(((2S,3R)-2-aminopentan-3-yl)amino)-5-fluoro-2-((1-methyl-3-(1H-pyrazol-1-yl)-1H-indazol-5-yl)amino)nicotinamide]
11 | 0.065 to 0.13 | < 0.01 µM |  |  | Cc1cc(Nc2nc(N[C@H](C3CCC3)[C@H](C)N)c(F)cc2C(N)=O)cnc1C [Example 006-597, 6-(((1R,2S)-2-amino-1-cyclobutylpropyl)amino)-2-((5,6-dimethylpyridin-3-yl)amino)-5-fluoronicotinamide]
12 | 0.13 to 0.2 | < 0.01 µM |  |  | Cc1ncc(Nc2nc(N[C@H](C3CCC3)[C@H](C)N)c(F)cc2C(N)=O)cc1-n1nccn1 [Example 006-598, 6-(((1R,2S)-2-amino-1-cyclobutylpropyl)amino)-5-fluoro-2-((6-methyl-5-(2H-1,2,3-triazol-2-yl)pyridin-3-yl)amino)nicotinamide]
13 | 0.065 to 0.13 | 0.01 to 0.05 µM |  |  | COc1cc(Nc2nc(NCCN)c(F)cc2C(N)=O)cc(OC)c1 [Example 008-001]
14 | < 0.065 | < 0.01 µM |  |  | NC(=O)c1cc(F)c(NC2CCCCC2N)nc1Nc1cncc2ccccc12 (stereo not drawn) [Example 010-001]
15 | 0.13 to 0.2 | 0.01 to 0.05 µM |  |  | NC(=O)c1cc(F)c(NC2CCCCC2N)nc1Nc1cnc2ncccc2c1 (stereo not drawn) [Example 010-002]
16 |  |  | ≤ 0.2 | ≤ 1 | CC(C)C[C@@H](Nc1nc(Nc2ccc3ncccc3c2)c(C(N)=O)cc1F)C(N)=O [Example 11, 6-(((2R)-1-amino-4-methyl-1-oxopentan-2-yl)amino)-5-fluoro-2-(quinolin-6-ylamino)nicotinamide]
17 | 0.13 to 0.2 | 0.01 to 0.05 µM |  |  | CC(C)C[C@@H](Nc1nc(Nc2ccc3ncsc3c2)c(C(N)=O)cc1F)C(N)=O [Example 012-005]
18 |  |  | ≤ 0.2 | ≤ 1 | NC(=O)c1cc(F)c(N[C@@H](C(N)=O)c2ccccc2)nc1Nc1ccc2ncccc2c1 [Example 12-8, 6-(((1R)-2-amino-2-oxo-1-phenylethyl)amino)-5-fluoro-2-(quinolin-6-ylamino)nicotinamide]
19 | 0.065 to 0.13 | < 0.01 µM |  |  | CC(C)C[C@@H](Nc1nc(Nc2ccc3ncccc3c2)c(C(N)=O)cc1F)C(N)=O [Example 012-009]
20 | 0.13 to 0.2 | 0.01 to 0.05 µM |  |  | NC(=O)c1cc(F)c(N[C@@H](C(N)=O)c2ccccc2)nc1Nc1cnc2ccccc2c1 [Example 012-013]

Row | IC50 (THP-1 cells; [2]) [µM] | IC50 [1, 3] | IC50 (THP-1 cells; [4]) [µM] | IC50 [1, 5] [µM] | SMILES
21 | 0.065 to 0.13 | 0.01 to 0.05 µM |  |  | CC[C@@H](Nc1nc(Nc2ccc3ncccc3c2)c(C(N)=O)cc1F)C(N)=O [Example 012-031]
22 | 0.065 to 0.13 | 0.01 to 0.05 µM |  |  | C[C@@H](Nc1nc(Nc2ccc3ncccc3c2)c(C(N)=O)cc1F)C(N)=O [Example 012-036, (R)-6-((1-amino-1-oxopropan-2-yl)amino)-5-fluoro-2-((quinolin-6-yl)amino)nicotinamide]
23 |  |  | ≤ 0.2 | ≤ 1 | C[C@H](N)CNc1nc(Nc2ccc3ncccc3c2)c(C(N)=O)cc1F [Example 13, 6-((2S)-2-aminopropylamino)-5-fluoro-2-(quinolin-6-ylamino)nicotinamide]
24 | < 0.065 | < 0.01 µM |  |  | CC(C)C(N)CNc1nc(Nc2ccc3ncccc3c2)c(C(N)=O)cc1F (stereo not drawn) [Example 014-002]
25 | < 0.065 | < 0.01 µM |  |  | NC(=O)c1cc(F)c(NCC(N)c2ccccc2)nc1Nc1ccc2ncccc2c1 (stereo not drawn) [Example 014-005]
26 | < 0.065 | < 0.01 µM |  |  | CC(N)CNc1nc(Nc2ccc3ncccc3c2)c(C(N)=O)cc1F (stereo not drawn) [Example 014-009]
27 | 0.13 to 0.2 | 0.01 to 0.05 µM |  |  | NC(=O)c1cc(F)c(NCC(N)C2CC2)nc1Nc1ccc2ncccc2c1 (stereo not drawn) [Example 014-013, 6-((2-amino-2-cyclopropylethyl)amino)-5-fluoro-2-((quinolin-6-yl)amino)nicotinamide]
28 | 0.13 to 0.2 | < 0.01 µM |  |  | NC(=O)c1cc(F)c(NCC2(N)CC2)nc1Nc1ccc2ncccc2c1 [Example 014-014, 6-((1-aminocyclopropylmethyl)amino)-5-fluoro-2-((quinolin-6-yl)amino)nicotinamide]
29 | 0.065 to 0.13 | < 0.01 µM |  |  | NC(=O)c1cc(F)c(NCC(N)C(F)(F)F)nc1Nc1ccc2ncccc2c1 (stereo not drawn) [Example 014-016, 6-((2-amino-3,3,3-trifluoropropyl)amino)-5-fluoro-2-((quinolin-6-yl)amino)nicotinamide]
30 | 0.13 to 0.2 | < 0.01 µM |  |  | NC(=O)c1cc(F)c(NC[C@@H](N)c2ccccn2)nc1Nc1ccc2ncccc2c1 [Example 014-017, (R)-6-((2-amino-2-(pyridin-2-yl)ethyl)amino)-5-fluoro-2-((quinolin-6-yl)amino)nicotinamide]
31 | 0.065 to 0.13 | < 0.01 µM |  |  | NC(=O)c1cc(F)c(NC[C@@H](N)c2ccsc2)nc1Nc1ccc2ncccc2c1 [Example 014-019, (S)-6-((2-amino-2-(thiophene-3-yl)ethyl)-amino)-5-fluoro-2-((quinolin-6-yl)amino)-nicotinamide]
32 | 0.13 to 0.2 | 0.01 to 0.05 µM |  |  | NC(=O)c1cc(F)c(NC2CCCCC2N)nc1Nc1cncc(NC(=O)c2cccc(F)c2F)c1 (stereo not drawn) [Example 027-030]
33 | 0.13 to 0.2 | < 0.01 µM |  |  | NC(=O)c1cc(F)c(NC2CCCCC2N)nc1Nc1cncc(NC(=O)c2ccco2)c1 (stereo not drawn) [Example 027-033]
34 | 0.065 to 0.13 | < 0.01 µM |  |  | NC(=O)c1cc(Cl)c(NC2CCCCC2N)nc1Nc1cnc2ccccc2c1 (stereo not drawn) [Example 035-001]
35 | 0.065 to 0.13 | < 0.01 µM |  |  | NC(=O)c1cc(Br)c(NC2CCCCC2N)nc1Nc1cnc2ccccc2c1 (stereo not drawn) [Example 035-002]
36 | 0.13 to 0.2 | < 0.01 µM |  |  | Cc1cccc(Nc2nc(NC3CCCCC3N)c(Cl)cc2C(N)=O)c1 (stereo not drawn) [Example 035-005]
37 | 0.065 to 0.13 | < 0.01 µM |  |  | Cc1cncc(Nc2nc(NC3CCCCC3N)c(Br)cc2C(N)=O)c1 (stereo not drawn) [Example 035-007]
38 | 0.13 to 0.2 | < 0.01 µM and 0.01 to 0.05 µM |  |  | Cc1cc(C)cc(Nc2nc(NCCN)c(Br)cc2C(N)=O)c1 [Example 035-009]
39 | < 0.065 | < 0.01 µM |  |  | NC(=O)c1cc(F)c(N[C@@H]2CCCC[C@@H]2N)nc1Nc1cccc2ncccc12 [Example 37-1, 6-((1R,2S)-2-aminocyclohexylamino)-5-fluoro-2-((quinolin-5-yl)amino)nicotinamide]
